Results on nine compounds are retold here after EP0240630A2, “Treatment of skin of over androgenicity using compositions containing pregnenolone” (priority 1986, dated 1987).

One data set relates to flank organ. To be noted: topical application, graded doses, 5 days/week for 2 weeks; cited from earlier work.
The subject of data set [1] is 3β-hydroxysteroid dehydrogenase Δ^4-5-isomerase (3βHSD). In words: Inhibition of 3βHSD conversion of 3H-DHA in rat preputial gland homogenate (TLC/scintillation counting). It counts as biochemical. To be noted: rat preputial gland homogenate, 1,2-³H-DHA with 100 nmoles DHA, 37°C; range of four separate incubations. On the procedure: To assess the androgen inhibiting activity of pregnenolone, rat preputial gland was employed to investigate the in vitro androgenic action of DHA. […] A pair of the glands are situated in the prepuce of the rate of either sex weighing between 125-200 mg in an average 200 g rat, being slightly larger in the male animal. The animals employed were female Sprague-Dawley rats, 10-12 weeks old and weighing 225-300 g.
The experimental format, stated broadly, was to excise preputial glands from rats and prepare a homogenate therefrom. A predetermined amount of homogenate (the sample) was then spiked with radiolabeled (with ³H) DHA, in the presence or absence of pregnenolone, and the sample was incubated. […] The metabolites were quantitated by removal from the thin layer plate and counting in a scintillation counter. By determining the extent of metabolite formation, the extent of inhibition of 3βHSD could be correspondingly determined. […]
Experiments were initially conducted to ensure that DHA and its metabolites could be separated chromatographically. […] The position of the steroid can be readily traced with this method. […] Elution and quantitative evaluation of steroids can be effected after removal of the iodine. […] For quantitation the plates were then scraped in 1 cm sections for radioassay of ³H in a Packard Tri- Carb liquid scintillation counter. […]

Another data set concerns 3βHSD. Briefly: In vivo metabolism of injected 1,2-3H-DHA in DHA-stimulated hamster flank organs after topical inhibitor. The arrangement: species or system Syrian Golden Hamsters. To be noted: female hamsters, pregnenolone topical for 3 days; 1 hour after intracardial ³H-DHA. An excerpt:
The effects of hormones and hormonally active substances on sebaceous glands can also be evaluated using the Syrian hamster flank organs as an animal model. The results of experiments using hamsters are valuable inasmuch as they can provide in vivo confirmation of the in vitro experiments like those described above using rat preputial gland. The flank organs, also called the costovertebral spot or the costovertebral organ, are sebaceous structures located on each flank of the animal. Like the sebaceous glands of the human and the preputial gland of the rate they are androgen dependent (Voigt and Hsia, 1973; Gomez and Frost, 1969; Frost and Gomez, 1973).
Hamster flank organs were accordingly used to test in vivo the androgenic inhibitory properties of pregnenolone.
Female Syrian Golden Hamsters were used in this experiment. […]
On the afternoon of day 3, an intracardial injection of 1,2-³H-DHA (5µCi/0.1 ml saline buffer solution) was given to both experimental groups anesthetized with ether. […] Each organ was then placed in a 16 mm x 150 mm test tube containing methanol and was homogenized, extracted and analyzed for steroid metabolites by separating the metabolites using thin layer chromatography as described above, scraping the thus separated metabolites from the thin layer plates, and quantitating using a scintillation counter. […]
Results are shown in Figure 2 expressed as DPM/mg tissue.

The subject of a further data set is acne vulgaris. It counts as in vivo, human. On the procedure: The following experiment was conducted and is a typical trial. In a double-blind clinical trial 23 patients with acne vulgaris volunteered to participate. Fifteen patients (11 females and 4 males) were given a 1% solution of pregnenolone dissolved in isopropanol containing 1% glycerol, and 8 patients (5 females and 3 males) were given a 1% solution of glycerol in isopropanol. Neither the patients nor the attending dermatologist knew whether or not the dispensed solution contained pregnenolone. The patients were instructed to stop using their previous medications for two weeks and then to apply the given solution to their faces twice daily. They were reexamined biweekly.

Data set [2] in a line: Solubility in formulation vehicles. Format: physicochemical. An excerpt: With regard to formulation for use with humans, because pregnenolone is insoluble in water, most aqueous base vehicles or carriers are not useful in the invention. Vehicles with a high content of alcohols, such as isopropanol or mixtures of alcohols with longer (C₄-C₁₀) alkane or alkene chains, in which pregnenolone is soluble, would afford a suitable base for the formulation as liquid, gel or cream. Glycerol may be added in the preparation as an emollient. Glycerol is hygroscopic; it keeps the skin surface from drying. Other additions of moisturizers or perfumes as known in the art are compatible with pregnenolone.

Another data set deals with flank organs. In words: Stimulation of female hamster flank organ growth by topical DHA. To be noted: 12 µg, 60 µg, 120 µg applied to the right side, 7 days/week for 6 weeks. It counts as in vivo, female hamsters. On the procedure: Before testing the anti-androgenic properties of pregnenolone on hamster flank organs and relying on the results, a centrally important question therefore needed to be answered -- Could DHA be shown to stimulate growth in the flank organs? This question was answered by applying graded doses of DHA, 12 µg, 60 µg, 120 µg to the right side of female hamsters (5 hamsters/group), for 7 days/week for 6 weeks.

Setting [3] is: 1% pregnenolone in isopropanol containing 1% glycerol, face, twice daily, twelve weeks, 15 patients.

SMILES strings stand for the structures.

In the case of `C[C@]12CCC(=O)C=C1CC[C@@H]1[C@@H]2CC[C@@]2(C)[C@H]1CC[C@]2(C)O` [methyltestosterone], the “flank organ sebaceous gland growth and pigmentation” value in the data set with flank organ was “unilateral stimulation of sebaceous gland growth and pigmentation”.

Turning to `CC(=O)[C@H]1CC[C@H]2[C@@H]3CC=C4C[C@@H](O)CC[C@]4(C)[C@H]3CC[C@]12C` [pregnenolone, Δ⁵-pregnene-3β-o1-20-one], the “inhibition of the 3βHSD for DHA (Δ⁴-3-keto product formed, relative to absence of the inhibitor)” value in data set [1] was 91-92%. For the same compound, the “formation of testosterone, DHT and androstanediol in flank organs, control versus treated” value in the data set with 3βHSD is on record as “Control hamsters, not treated with inhibitor, show greater formation”. Also, in the data set on acne vulgaris (setting [3]), the “patients noted definite improvement, with reduction in the size and number of lesions” value is reported as 33%; the “patients noted no change in lesions or oiliness” value turned out to be 26%; the “patients noted reduction of oiliness” value came to 13%; the “patients noted slight reduction of the number of lesions and a reduction in the oiliness of the skin” value came to 26%. Further, the “patients showed marked reductions in skin oiliness and in pore size” value in the data set on acne vulgaris (1% pregnenolone in isopropanol containing 1% glycerol, twelve weeks, 15 patients) is “two”. Further, the “patients' comparison with other medications used previously” value in the data set with acne vulgaris (claim of patients who had used other medications previously) was “more effective and more acceptable”. For the same compound, the “irritation or discomfort caused by the topical application” value in the data set on acne vulgaris (human, in vivo) is reported as “no complaint”. Besides, in data set [2] (isopropanol or mixtures of alcohols with longer (C₄-C₁₀) alkane or alkene chains), the “solubility in vehicles with a high content of alcohols” value was “soluble”. In addition, the solubility in water entry in data set [2] (water) is reported as “insoluble”.

Take `C[C@]12CC[C@H](O)CC1=CC[C@@H]1[C@@H]2CC[C@]2(C)C(=O)CC[C@@H]12` [DHA, dehydroepiandrosterone]: in the data set on flank organs, the “stimulation of flank organ growth” value was “stimulation of both flank organs”.

For the compound `C[C@]12CC[C@H](O)C[C@@H]1CC[C@@H]1[C@@H]2CC[C@]2(C)C(=O)CC[C@@H]12` [epiandrosterone], in the data set with flank organ, the “flank organ sebaceous gland growth and pigmentation” value is recorded as “did not cause flank organ growth or increased pigmentation”.

For the compound `C[C@]12CC[C@H]3[C@@H](CCC4=CC(=O)CC[C@@]43C)[C@@H]1CC[C@@H]2O` [testosterone], the “flank organ sebaceous gland growth and pigmentation” value in the data set on flank organ is “unilateral stimulation of sebaceous gland growth and pigmentation”.

In the case of `CC(=O)[C@H]1CC[C@H]2[C@@H]3CCC4=CC(=O)CC[C@]4(C)[C@H]3CC[C@]12C` [progesterone], the “flank organ sebaceous gland growth and pigmentation” value in the data set on flank organ is reported as “did not cause flank organ growth or increased pigmentation”.

Take `C[C@]12CCC(=O)C=C1CC[C@@H]1[C@@H]2CC[C@]2(C)C(=O)CC[C@@H]12` [androstenedione, Δ⁴-androstenedione]: the “flank organ sebaceous gland growth and pigmentation” value with flank organ was “unilateral stimulation of sebaceous gland growth and pigmentation”.

For the compound `C[C@]12CCC(=O)C[C@@H]1CC[C@@H]1[C@@H]2CC[C@]2(C)[C@@H](O)CC[C@@H]12` [DHT, dihydrotestosterone], the “flank organ sebaceous gland growth and pigmentation” value in the data set with flank organ was “unilateral stimulation of sebaceous gland growth and pigmentation”.

Consider `C[C@]12CC[C@@H](O)C[C@@H]1CC[C@@H]1[C@@H]2CC[C@]2(C)C(=O)CC[C@@H]12` [androsterone], for which the “flank organ sebaceous gland growth and pigmentation” value with flank organ is recorded as “did not cause flank organ growth or increased pigmentation”.
